Measurements as given in patent US20260035339A1, “TETRAHYDRONAPHTHALENE DERIVATIVE” (ATRANSEN PHARMA LTD., priority 2022, published 2026).

What was measured:
human LAT1 = human LAT1 (Homo sapiens, UniProt Q01650); assay: [14C]L-leucine uptake inhibition test using human-LAT1 stably expressing HEK293 cell line; format: cell-based; design: having full-length cDNA of human LAT1 or LAT2 inserted under a promoter of CMV; expressed in transfected cells; key to Assay Data: degree of [14C]L-leucine uptake inhibition compared with BCH: a test compound having a higher inhibitory effect than BCH is denoted by A; a test compound having the same inhibitory effect as BCH is denoted by B; a test compound having a lower inhibitory effect than BCH is denoted by C; conditions: for Assay Data: degree of [14C]L-leucine uptake inhibition compared with BCH: compound (racemic form) and BCH at 0.1, 1.0, 10 μM, 1 μM [14C]L-leucine, 1 minute, Na+-free HBSS
human LAT1, sequence (Q01650 whole entry): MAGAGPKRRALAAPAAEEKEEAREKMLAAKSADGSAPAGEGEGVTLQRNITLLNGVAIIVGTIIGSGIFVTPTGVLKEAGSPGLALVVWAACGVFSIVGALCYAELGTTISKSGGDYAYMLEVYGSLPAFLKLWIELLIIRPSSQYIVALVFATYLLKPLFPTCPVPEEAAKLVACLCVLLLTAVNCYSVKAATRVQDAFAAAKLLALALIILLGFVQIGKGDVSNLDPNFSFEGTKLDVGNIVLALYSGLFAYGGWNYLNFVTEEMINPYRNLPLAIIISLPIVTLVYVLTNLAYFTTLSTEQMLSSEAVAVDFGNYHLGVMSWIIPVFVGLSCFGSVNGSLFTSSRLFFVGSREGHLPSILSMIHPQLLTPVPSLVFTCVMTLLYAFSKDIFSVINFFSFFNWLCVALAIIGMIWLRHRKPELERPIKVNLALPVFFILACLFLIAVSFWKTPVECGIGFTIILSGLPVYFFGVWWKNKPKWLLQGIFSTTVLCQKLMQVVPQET
human LAT1, sequence (P08195 102-630 partner): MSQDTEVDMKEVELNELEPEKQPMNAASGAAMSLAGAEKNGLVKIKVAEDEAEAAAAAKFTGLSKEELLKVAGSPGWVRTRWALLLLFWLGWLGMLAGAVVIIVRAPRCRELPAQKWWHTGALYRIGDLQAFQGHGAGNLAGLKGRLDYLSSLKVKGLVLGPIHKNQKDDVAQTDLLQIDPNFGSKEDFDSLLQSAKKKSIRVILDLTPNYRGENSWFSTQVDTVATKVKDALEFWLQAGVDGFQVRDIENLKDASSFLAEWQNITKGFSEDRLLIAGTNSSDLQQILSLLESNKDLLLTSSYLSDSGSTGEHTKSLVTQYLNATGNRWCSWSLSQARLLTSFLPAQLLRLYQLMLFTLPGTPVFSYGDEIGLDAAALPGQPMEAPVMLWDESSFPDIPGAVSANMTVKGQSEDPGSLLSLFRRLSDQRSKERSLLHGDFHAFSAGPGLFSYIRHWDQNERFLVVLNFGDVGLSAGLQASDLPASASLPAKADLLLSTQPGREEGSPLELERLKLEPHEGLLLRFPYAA
Source text: HEK293 cells stably expressing human LAT1 and LAT2 were produced, respectively.
A shuttle vector DNA (LAT1: pcDNA3.1(+) -hLAT1, LAT2: pcDNA3.1(+) -hLAT2; expression vector pcDNA3.1 (+) was produced by Invitrogen Corp.) having ampicillin and neomycin resistance markers and having full-length cDNA of human LAT1 or LAT2 inserted under a promoter of CMV (cytomegalovirus) was constructed. This vector was transfected into the HEK293 cells by a method using Lipofectamine (registered trademark) 2000 (Invitrogen Corp.) according to the manufacturer's instructions. Thereafter, stably expressing cell clones of transgene were selected by a limiting dilution method in the presence of 0.9 mg/mL of Geneticin (registered trademark), and among the obtained cell clones, cell clones having a high uptake of [^14C]L-leucine and maintaining stable expression even after 10 passages were obtained. These cells were used for evaluating affinity and selectivity for LAT1 and LAT2.
1-1. It has been confirmed that LAT1 is responsible for L-leucine uptake in the absence of sodium ions in the human-LAT1 stably expressing HEK293 cell line. The human-LAT1 stably expressing HEK293 cell line was seeded in a 24-well plate at 1×10^5 Cell/Well, and the [^14C]L-leucine uptake inhibition test using the compound was performed after 48 hours. After the medium was removed and the cells were washed with Hank's balanced salt solution (Na^+-free HBSS) not containing sodium ions, the cells were cultured in Na^+-free HBSS for 10 minutes. Thereafter, 1 μM of [^14C]L-leucine was taken up in Na^+-free HBSS in the presence of a test compound (0.1, 1.0, 10, 0 μM in each case), which is a racemic form, for 1 minute, and then the cells were washed three times with ice-cooled Na^+-free HBSS. To the well, 500 μL of 1 M NaOH was added, and after 30 minutes, the cells were lysed, and the cell lysate was collected. The amount of [^14C]L-leucine in the cell lysate was determined using a liquid scintillator. The amount of protein in the cell lysate was measured using BCA Assay Kit (Thermofisher Scientific), and the uptake amount of [^14C]L-leucine per 1 mg of protein in the cell per minute was calculated.
The degree of LAT1 inhibition of the compound obtained in the present invention was compared with BCH (BCH, 2-aminobicyclo-(2,2,1)-heptane-2-carboxylic acid), which is an existing LAT1 inhibitor. In the [^14C]L-leucine uptake inhibition test described above, the degrees of inhibition of [^14C]L-leucine uptake inhibition using the compound (racemic form) obtained in Examples and BCH (0.1, 1.0, 10, 0 μM for both) were compared. […] In the table, a test compound having a higher inhibitory effect than BCH is denoted by A, a test compound having the same inhibitory effect as BCH is denoted by B, and a test compound having a lower inhibitory effect than BCH is denoted by C.

[1] = tested on: Mouse colorectal cancer-derived CT26 cells; assay: Cell proliferation inhibitory effect using mouse colorectal cancer cells (CCK-8 assay); format: cell-based; conditions: 72 hours compound treatment, read-out: Evaluation of IC50 (proliferation inhibition rate of 50%)
Protocol: Mouse colorectal cancer-derived CT26 cells were adjusted to […], seeded in a 96-well plate at 1000 cells/well, and cultured in a 10% fetal bovine serum-added RPMI 1640 medium at 5% CO2 and 37° C. The culture medium was changed 24 hours after the start of the culture, and the medium containing the compound of Example was replaced to examine the action of the compound on cell proliferation. As the compound, a concentration of 0.01, 0.03, 0.1, 0.3, 1, 3, 10, or 30 μM was used. As a control, the cells were cultured in a medium containing no compound. The number of cells was evaluated by CCK-8 assay (Cell Counting Kit-8, DOJINDO LABORATORIES) 72 hours after the start of the compound treatment, and the compound concentration (IC50 value) giving a proliferation inhibition rate of 50% as compared with the control was calculated.

NC1(C(=O)O)CC2CCC1C2 (stereo not shown) [BCH, 2-aminobicyclo-(2,2,1)-heptane-2-carboxylic acid, reference compound]
[14C]L-leucine uptake inhibition via LAT1 (in words) (human LAT1; 0.1 to 10 μM): weak

Cl.NC1(C(=O)O)CCc2ccc(Oc3cccc(-c4ccccc4)c3)cc2C1 (stereo not shown) [Example 1-2, 7-([1,1′-biphenyl]-3-yloxy)-2-carboxy-1,2,3,4-tetrahydronaphthalene-2-aminium chloride]
Assay Data: degree of [14C]L-leucine uptake inhibition compared with BCH (human LAT1): A

Cl.NC1(C(=O)O)CCc2ccc(Oc3ccc4occc4c3)cc2C1 (stereo not shown) [Example 1-3, 7-(benzofuran-5-yloxy)-2-carboxy-1,2,3,4-tetrahydronaphthalene-2-aminium chloride]
Assay Data: degree of [14C]L-leucine uptake inhibition compared with BCH (human LAT1): A

Cl.NC1(C(=O)O)CCc2ccc(Oc3cccc4ccccc34)cc2C1 (stereo not shown) [Example 1-4, 2-carboxy-7-(naphthalene-1-yloxy)-1,2,3,4-tetrahydronaphthalene-2-aminium chloride]
Assay Data: degree of [14C]L-leucine uptake inhibition compared with BCH (human LAT1): A
LAT1 inhibitory effect, compounds singled out (in words) (human LAT1; same test as Table 1): particularly remarkable effects
IC50 [1]: ≤ 900 nM

COc1ccc2ccc(Oc3ccc4c(c3)CC(N)(C(=O)O)CC4)cc2c1.Cl (stereo not shown) [Example 1-5, 2-carboxy-7-((7-methoxynaphthalene-2-yl)oxy)-1,2,3,4-tetrahydronaphthalene-2-aminium chloride]
Assay Data: degree of [14C]L-leucine uptake inhibition compared with BCH (human LAT1): A

CN(C)c1ccc2cc(Oc3ccc4c(c3)CC(N)(C(=O)O)CC4)ccc2c1 (stereo not shown) [Example 1-6, 2-amino-7-((6-(dimethylamino)naphthalene-2-yl)oxy)-1,2,3,4-tetrahydronaphthalene-2-carboxylic acid]
Assay Data: degree of [14C]L-leucine uptake inhibition compared with BCH (human LAT1): A

CN(C)c1ccc2ccc(Oc3ccc4c(c3)CC(N)(C(=O)O)CC4)cc2c1 (stereo not shown) [Example 1-7, 2-amino-7-((7-(dimethylamino)naphthalene-2-yl)oxy)-1,2,3,4-tetrahydronaphthalene-2-carboxylic acid]
Assay Data: degree of [14C]L-leucine uptake inhibition compared with BCH (human LAT1): A

NC1(C(=O)O)CCc2ccc(Oc3ccc4ncccc4c3)cc2C1 (stereo not shown) [Example 1-8, 2-amino-7-(quinoline-6-yloxy)-1,2,3,4-tetrahydronaphthalene-2-carboxylic acid]
Assay Data: degree of [14C]L-leucine uptake inhibition compared with BCH (human LAT1): A

NC1(C(=O)O)CCc2ccc(Oc3cccc(-c4ccccn4)c3)cc2C1 (stereo not shown) [Example 1-9, 2-amino-7-(3-(pyridine-2-yl)phenoxy)-1,2,3,4-tetrahydronaphthalene-2-carboxylic acid]
Assay Data: degree of [14C]L-leucine uptake inhibition compared with BCH (human LAT1): A

Cl.NC1(C(=O)O)CCc2ccc(Oc3cccc(-c4ccc(Cl)cc4)c3)cc2C1 (stereo not shown) [Example 1-10, 2-carboxy-7-((4′-chloro-[1,1′-biphenyl]-3-yl)oxy)-1,2,3,4-tetrahydronaphthalene-2-aminium chloride]
Assay Data: degree of [14C]L-leucine uptake inhibition compared with BCH (human LAT1): A

Cl.NC1(C(=O)O)CCc2ccc(Oc3cccc(-c4cccc(Cl)c4)c3)cc2C1 (stereo not shown) [Example 1-11, 2-carboxy-7-((3′-chloro-[1,1′-biphenyl]-3-yl)oxy)-1,2,3,4-tetrahydronaphthalene-2-aminium chloride]
Assay Data: degree of [14C]L-leucine uptake inhibition compared with BCH (human LAT1): A

Cl.NC1(C(=O)O)CCc2ccc(Oc3ccc(-c4ccccc4)cc3)cc2C1 (stereo not shown) [Example 1-12, 7-([1,1′-biphenyl]-4-yloxy)-2-carboxy-1,2,3,4-tetrahydronaphthalene-2-aminium chloride]
Assay Data: degree of [14C]L-leucine uptake inhibition compared with BCH (human LAT1): A

Cl.NC1(C(=O)O)CCc2ccc(Oc3cccc(-c4ccc5ccccc5c4)c3)cc2C1 (stereo not shown) [Example 1-13, 2-carboxy-7-(3-(naphthalene-2-yl)phenoxy)-1,2,3,4-tetrahydronaphthalene-2-aminium chloride]
Assay Data: degree of [14C]L-leucine uptake inhibition compared with BCH (human LAT1): A

Cl.NC1(C(=O)O)CCc2ccc(Oc3ccccc3-c3ccccc3)cc2C1 (stereo not shown) [Example 1-16, 7-([1,1′-biphenyl]-2-yloxy)-2-carboxy-1,2,3,4-tetrahydronaphthalene-2-aminium chloride]
Assay Data: degree of [14C]L-leucine uptake inhibition compared with BCH (human LAT1): A
IC50 [1]: ≤ 900 nM

Cl.Cl.NC1(C(=O)O)CCc2ccc(Oc3ccccc3-c3ccccn3)cc2C1 (stereo not shown) [Example 1-32, 2-(2-((7-ammonio-7-carboxy-5,6,7,8-tetrahydronaphthalen-2-yl)oxy)phenyl) pyridin-1-ium chloride]
Assay Data: degree of [14C]L-leucine uptake inhibition compared with BCH (human LAT1): A
IC50 [1]: 900 to 5000 nM

COc1cccc(-c2ccccc2Oc2ccc3c(c2)CC(N)(C(=O)O)CC3)c1.Cl (stereo not shown) [Example 1-39, 2-carboxy-7-((3′-methoxy-[1,1′-biphenyl]-2-yl)oxy)-1,2,3,4-tetrahydronaphthalene-2-aminium chloride]
Assay Data: degree of [14C]L-leucine uptake inhibition compared with BCH (human LAT1): A
IC50 [1]: ≤ 900 nM

CCc1cccc(-c2ccccc2Oc2ccc3c(c2)CC(N)(C(=O)O)CC3)c1.Cl (stereo not shown) [Example 1-47, 2-carboxy-7-((3′-ethyl-[1,1′-biphenyl]-2-yl)oxy)-1,2,3,4-tetrahydronaphthalene-2-aminium chloride]
Assay Data: degree of [14C]L-leucine uptake inhibition compared with BCH (human LAT1): A
IC50 [1]: ≤ 900 nM

Cl.NC1(C(=O)O)CCc2ccc(Oc3ccccc3-c3ccc(F)c(F)c3)cc2C1 (stereo not shown) [Example 1-56, 2-carboxy-7-((3′,4′-Difluoro-[1,1′-Biphenyl]-2-yl)oxy)-1,2,3,4-tetrahydronaphthalene-2-aminium chloride]
Assay Data: degree of [14C]L-leucine uptake inhibition compared with BCH (human LAT1): A
IC50 [1]: ≤ 900 nM

COc1cccc2cccc(Oc3ccc4c(c3)CC(N)(C(=O)O)CC4)c12.Cl (stereo not shown) [Example 1-60, 2-carboxy-7-((8-methoxynaphthalen-1-yl)oxy)-1,2,3,4-tetrahydronaphthalen-2-aminium chloride]
Assay Data: degree of [14C]L-leucine uptake inhibition compared with BCH (human LAT1): A
IC50 [1]: ≤ 900 nM

Cl.NC1(C(=O)O)CCc2ccc(Oc3cccc4cccc(-c5ccccc5)c34)cc2C1 (stereo not shown) [Example 1-61, 2-carboxy-7-((8-phenylnaphthalen-1-yl)oxy)-1,2,3,4-tetrahydronaphthalen-2-aminium chloride]
Assay Data: degree of [14C]L-leucine uptake inhibition compared with BCH (human LAT1): A
IC50 [1]: ≤ 900 nM

Cl.NC1(C(=O)O)CCc2ccc(Oc3ccccc3-c3c(F)c(F)c(F)c(F)c3F)cc2C1 (stereo not shown) [Example 1-64, 2-carboxy-7-((2′,3′,4′,5′,6′-pentafluoro-[1,1′-biphenyl]-2-yl)oxy)-1,2,3,4-tetrahydronaphthalene-2-aminium chloride]
Assay Data: degree of [14C]L-leucine uptake inhibition compared with BCH (human LAT1): A
IC50 [1]: ≤ 900 nM

NC1(C(=O)O)CCc2ccc(Oc3ccc([N+](=O)[O-])cc3)cc2C1 (stereo not shown) [Example 1-68, 2-carboxy-7-(4-nitrophenoxy)-1,2,3,4-tetrahydronaphthalene-2-aminium chloride]
IC50 [1]: 900 to 5000 nM

Cl.NC1(C(=O)O)CCc2cc(Oc3ccc4ccccc4c3)ccc2C1 (stereo not shown) [Example 2-1, 2-carboxy-6-(naphthalene-2-yloxy)-1,2,3,4-tetrahydronaphthalene-2-aminium chloride]
Assay Data: degree of [14C]L-leucine uptake inhibition compared with BCH (human LAT1): A

NC1(C(=O)O)CCc2cc(Oc3ccc(-c4cccnc4)cc3)ccc2C1 (stereo not shown) [Example 2-2, 3-(4-((6-ammonio-6-carboxy-5,6,7,8-tetrahydronaphthalene-2-yl)oxy)phenyl) pyridine-1-ium chloride]
Assay Data: degree of [14C]L-leucine uptake inhibition compared with BCH (human LAT1): B
